{"source": "patent US20060142249A1", "about": "“Ophthalmic use” (priority 2002, published 2006)", "key": {"[1]": {"molecular_target": "GABA-B (Homo sapiens, UniProt Q9UBS5)", "sequence (Q9UBS5 15-961 limits assumed)": "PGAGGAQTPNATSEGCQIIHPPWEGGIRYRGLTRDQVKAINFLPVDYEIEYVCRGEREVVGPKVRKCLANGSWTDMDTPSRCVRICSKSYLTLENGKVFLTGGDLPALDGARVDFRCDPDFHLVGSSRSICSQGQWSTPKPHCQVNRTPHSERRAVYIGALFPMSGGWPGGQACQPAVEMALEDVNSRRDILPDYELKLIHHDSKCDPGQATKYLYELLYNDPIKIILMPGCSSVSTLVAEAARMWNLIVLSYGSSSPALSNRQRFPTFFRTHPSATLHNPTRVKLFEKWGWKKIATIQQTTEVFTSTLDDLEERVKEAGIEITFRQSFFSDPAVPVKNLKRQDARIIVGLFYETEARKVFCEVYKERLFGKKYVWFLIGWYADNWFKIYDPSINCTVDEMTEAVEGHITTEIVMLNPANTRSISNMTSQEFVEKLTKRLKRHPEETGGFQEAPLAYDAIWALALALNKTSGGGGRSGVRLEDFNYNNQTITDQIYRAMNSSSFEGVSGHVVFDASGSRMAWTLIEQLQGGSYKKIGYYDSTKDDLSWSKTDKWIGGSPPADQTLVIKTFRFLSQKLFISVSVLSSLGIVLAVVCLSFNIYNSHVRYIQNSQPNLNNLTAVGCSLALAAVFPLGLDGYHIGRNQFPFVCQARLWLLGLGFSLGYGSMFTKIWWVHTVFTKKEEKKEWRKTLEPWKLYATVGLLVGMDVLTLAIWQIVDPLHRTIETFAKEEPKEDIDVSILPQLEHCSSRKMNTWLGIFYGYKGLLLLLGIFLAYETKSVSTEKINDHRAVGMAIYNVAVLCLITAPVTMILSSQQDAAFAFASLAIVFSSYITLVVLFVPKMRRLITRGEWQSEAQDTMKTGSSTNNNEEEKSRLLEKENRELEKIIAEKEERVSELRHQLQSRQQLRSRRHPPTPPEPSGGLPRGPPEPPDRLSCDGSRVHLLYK", "sequence (O75899 42-941 partner)": "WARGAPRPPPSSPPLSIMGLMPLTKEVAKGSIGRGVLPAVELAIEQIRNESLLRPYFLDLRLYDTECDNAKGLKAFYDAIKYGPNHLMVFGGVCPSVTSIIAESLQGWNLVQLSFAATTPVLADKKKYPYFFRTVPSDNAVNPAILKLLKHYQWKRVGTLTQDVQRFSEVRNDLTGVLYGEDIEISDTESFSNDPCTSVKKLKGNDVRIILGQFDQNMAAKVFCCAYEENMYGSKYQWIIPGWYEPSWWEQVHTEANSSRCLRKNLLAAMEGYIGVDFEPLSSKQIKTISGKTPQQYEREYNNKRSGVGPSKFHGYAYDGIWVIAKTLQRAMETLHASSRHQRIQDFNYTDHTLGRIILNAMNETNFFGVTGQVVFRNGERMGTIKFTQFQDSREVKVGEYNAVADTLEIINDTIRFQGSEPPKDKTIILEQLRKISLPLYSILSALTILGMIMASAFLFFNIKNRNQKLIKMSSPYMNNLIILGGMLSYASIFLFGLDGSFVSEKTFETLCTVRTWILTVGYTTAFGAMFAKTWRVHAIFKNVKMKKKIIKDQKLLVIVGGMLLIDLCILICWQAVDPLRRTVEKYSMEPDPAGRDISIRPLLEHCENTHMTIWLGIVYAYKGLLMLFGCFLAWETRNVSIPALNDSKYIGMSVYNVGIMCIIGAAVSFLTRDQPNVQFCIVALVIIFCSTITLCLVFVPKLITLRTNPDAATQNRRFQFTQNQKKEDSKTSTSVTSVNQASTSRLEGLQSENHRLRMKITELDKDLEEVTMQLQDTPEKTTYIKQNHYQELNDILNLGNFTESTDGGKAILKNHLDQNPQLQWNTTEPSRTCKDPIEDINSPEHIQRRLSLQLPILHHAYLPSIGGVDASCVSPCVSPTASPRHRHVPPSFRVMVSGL", "assay": "Receptor profile, GABA-B", "format": "biochemical"}, "[2]": {"tested_on": "GABA-C", "assay": "Receptor profile, GABA-C", "format": "biochemical"}}}
{"smiles": "CP(=O)(O)C1=CCNCC1", "note": "[TPMPA]", "values": [{"measurement": "GABA-B mode of action (agonist/antagonist)", "setting": "[1]", "value": "agonist"}, {"measurement": "GABA-C mode of action (agonist/antagonist)", "setting": "[2]", "value": "antagonist"}]}
